Results published in BindingDB's records for patent US20240336642 (The General Hospital, 2024).

The compounds below were run against T1, Polyunsaturated fatty acid lipoxygenase ALOX12/ALOX15 (Homo sapiens, UniProt P16050+P18054) (assay: Biological Activity of Exemplified Compounds as Inhibitors of 12/15-LOX).
T1 sequence (P16050 whole entry): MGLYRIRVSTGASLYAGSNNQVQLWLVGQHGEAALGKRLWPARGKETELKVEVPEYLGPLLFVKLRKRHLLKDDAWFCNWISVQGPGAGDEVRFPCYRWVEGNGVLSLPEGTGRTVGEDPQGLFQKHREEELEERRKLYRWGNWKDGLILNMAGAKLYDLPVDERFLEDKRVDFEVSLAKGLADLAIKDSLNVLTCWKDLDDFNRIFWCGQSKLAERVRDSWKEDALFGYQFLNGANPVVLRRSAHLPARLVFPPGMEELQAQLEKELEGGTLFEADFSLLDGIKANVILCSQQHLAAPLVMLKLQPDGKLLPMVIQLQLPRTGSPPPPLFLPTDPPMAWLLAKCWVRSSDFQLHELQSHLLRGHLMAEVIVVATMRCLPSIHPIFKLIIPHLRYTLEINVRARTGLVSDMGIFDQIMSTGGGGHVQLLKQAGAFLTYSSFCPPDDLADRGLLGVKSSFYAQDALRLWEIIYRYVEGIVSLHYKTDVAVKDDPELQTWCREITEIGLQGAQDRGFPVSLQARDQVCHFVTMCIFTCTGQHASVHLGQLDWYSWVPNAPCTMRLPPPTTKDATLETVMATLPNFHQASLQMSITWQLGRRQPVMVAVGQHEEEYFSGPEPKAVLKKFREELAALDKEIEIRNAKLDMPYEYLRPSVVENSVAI
T1 sequence (P18054 whole entry): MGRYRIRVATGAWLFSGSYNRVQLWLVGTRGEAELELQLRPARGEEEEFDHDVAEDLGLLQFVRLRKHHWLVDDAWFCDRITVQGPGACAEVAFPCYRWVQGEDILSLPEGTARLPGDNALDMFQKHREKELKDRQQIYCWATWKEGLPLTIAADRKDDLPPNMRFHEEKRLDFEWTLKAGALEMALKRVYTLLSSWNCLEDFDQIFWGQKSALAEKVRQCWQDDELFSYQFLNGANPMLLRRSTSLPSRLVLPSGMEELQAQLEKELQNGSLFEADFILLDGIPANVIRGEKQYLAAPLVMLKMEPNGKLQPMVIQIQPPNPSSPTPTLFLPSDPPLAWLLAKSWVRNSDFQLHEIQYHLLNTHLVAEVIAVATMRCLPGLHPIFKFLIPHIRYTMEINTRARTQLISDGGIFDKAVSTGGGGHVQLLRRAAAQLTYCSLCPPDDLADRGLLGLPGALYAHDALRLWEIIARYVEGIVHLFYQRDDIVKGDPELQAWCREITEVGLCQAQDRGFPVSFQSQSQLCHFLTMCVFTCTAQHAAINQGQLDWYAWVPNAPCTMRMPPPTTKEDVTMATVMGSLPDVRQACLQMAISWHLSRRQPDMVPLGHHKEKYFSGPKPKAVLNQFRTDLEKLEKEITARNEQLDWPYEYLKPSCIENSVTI

Row | IC50 [nM] | SMILES
1 | 380 | CNc1oc(-c2cc(Cl)cc(OC)c2Cl)nc1C#N [US20240336642, Compound 9]
2 | > 20000 | N#Cc1nc(-c2cc(Cl)cc(Cl)c2F)oc1NCCCCCO [US20240336642, Compound 25]
3 | 97 | CNc1oc(-c2cc(Cl)cc(Cl)c2OC(F)F)nc1C#N [US20240336642, Compound 4]
